This is an account of results in publication PMC4942611, “Promising Tools in Prostate Cancer Research: Selective Non-Steroidal Cytochrome P450 17A1 Inhibitors” (Scientific Reports, 2016).

The structures appear in SMILES notation. Like-named read-outs stand apart in the source and are kept apart here.

Series [1] addresses T1, human CYP17A1 (Homo sapiens, UniProt P05093).
T1 construct: bearing a truncation of the N-terminal helix; made in house
T1 sequence (P05093 with tags, fused parts or gaps limits assumed): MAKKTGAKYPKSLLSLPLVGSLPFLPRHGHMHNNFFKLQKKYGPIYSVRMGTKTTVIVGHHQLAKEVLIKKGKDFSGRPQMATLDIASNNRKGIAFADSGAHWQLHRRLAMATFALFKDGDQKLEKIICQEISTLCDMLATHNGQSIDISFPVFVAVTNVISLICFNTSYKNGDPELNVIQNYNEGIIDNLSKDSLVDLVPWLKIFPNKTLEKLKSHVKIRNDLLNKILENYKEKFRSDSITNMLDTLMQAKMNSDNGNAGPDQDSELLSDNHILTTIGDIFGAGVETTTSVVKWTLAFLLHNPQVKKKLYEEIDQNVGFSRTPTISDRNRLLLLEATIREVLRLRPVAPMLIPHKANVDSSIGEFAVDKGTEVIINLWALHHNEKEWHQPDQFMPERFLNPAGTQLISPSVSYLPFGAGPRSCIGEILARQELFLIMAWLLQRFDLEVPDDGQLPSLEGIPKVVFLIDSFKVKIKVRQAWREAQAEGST
The series is described as follows: 17α-hydroxypregnenolone 17,20-lyase inhibition with purified CYP17A1. It is filed as biochemical. The note with it: conversion of 17-OH-PRE into DHEA, 1.2 μM 17α-hydroxypregnenolone; mean over 3 measurements ± standard error. Here is the method:
(§1) Purified cytochrome P450 17A1 (50 nmol) was incubated with truncated human cytochrome P450 reductase[48] and rat cytochrome b5 in a 1:4:0 or 1:4:4 ratio for hydroxylase and 17,20-lyase reactions, respectively. […] Reactions were initiated upon addition of 25 mM NADPH as the electron source. The hydroxylated product was quantified after HPLC using an UV detector and analyzed as previously published. The 17,20-lyase assay was performed similarly substituting 1.2 μM of 17α-hydroxypregnenolone as the substrate and inhibitor concentrations of 0–500 nM. The dehydroepiandrosterone product was quantitated using a coupled GC/MS method.

Series [2] in a line: Precipitation of compound in H295R exposure medium. It is filed as physicochemical. The note with it: H295R assay medium, 0.1% DMSO. Here is the method:
This cellular assay was also used to evaluate inhibitor selectivity.
(§2) The H295R steroid hormone synthesis assay was performed according to the OECD validation guideline. Cells were cultured in DMEM/F12 media supplemented with 1% ITS-premix and 2.5% Nu-serum at 37 °C with a 5% CO2 atmosphere. The cells were only used for experiments between passage […]. During exposure experiments, cells were grown in 24 well plates with a density of 3 × 10^5 cells/mL. […] To avoid interference from low levels of steroid hormones present in the Nu-serum, the exposure experiment was conducted with serum-free media. Each compound was tested at a minimum of seven concentration levels using three or more replicates and the experiment was repeated on two different days (n = 6–15). On each test plate a solvent control (SC) (medium with 0.1% DMSO) was included in triplicate and the maximal concentration of DMSO in the cell medium was 0.1%[49]. After 48 hours of incubation in presence of the test compounds, 950 μL of the medium was carefully removed and internal standards (50 μl of 0.1 μg/μl solution containing deuterated steroid analogues) were added. Samples were stored at −20 °C for later analysis.

In a further series the test system is H295R cell line. Nature of the series: H295R steroid hormone synthesis assay, production of steroidal hormones. Particulars: for IC50: Homo sapiens, NCI-H295R. It is filed as cell-based, human. The method, then:
as §2
Steroid extraction and clean-up were performed by double protein precipitation. First, 900 μL of cold acetonitrile were added to the samples, which were then vortexed and centrifuged at ~9500 × g for 10 minutes. Second, 900 μL cold methanol was added to the supernatant and the mixture was vortexed and centrifuged at 1500 × g for 10 minutes. Finally, the supernatant was collected and concentrated to ~1 mL under a gentle stream of nitrogen at 60 °C.
For on-line solid phase extraction (SPE) of steroids, a total of 100 μL was injected on a binary 1290 Agilent Infinity Series system and a binary 1100 Agilent HPLC pump were used in combination (Agilent Technologies, Palo Alto, CA, USA). For online clean-up, a C18 enrichment column (μbondapak® C18, 3.9 × 20 mm, 10 μm, Waters) was used. The enrichment column was connected to the autosampler through the TTC switching valve (two positions, 6 ports). Between the autosampler and the TTC switching valve a 0.3 μm in-line filter (1290 infinity in-line filter, Agilent) was installed. Separation of steroid hormones was performed using a C18 analytical column (Kinetex, 2.6 μm C18 100 Å, 75 × 2.1 mm, Phenomenex, USA). An isocratic flow of 1 mL/min H2O:methanol:formic acid at 90:10:0.1 (v/v/v) was generated by the 1100 pump which was connected to the autosampler. The 1290 pump performed a gradient elution with a flow rate of 0.3 mL which was connected to the TTC switching valve. Mobile phase A and B were composed of H2O with 0.1% formic acid (v/v) and pure methanol, respectively. The elution gradient was maintained at 10% B for the first 2 min, changed to 10.0–30.0% from 2.0 to 2.2 min, 30.0–60.0% from 2.2 to 8.0 min, maintained at 60.0% from 8.0 to 10.0 min, increased to 60.0–85.0% from 10.0 to 12.30 min, 85.0–99.5% from 12.3 to 12.5 min and held at 99.5% from 12.5 to 14.8 min, before re-equilibrating the column until 16 minutes.
For detection, an AB SCIEX 4500 QTRAP mass spectrometer (Applied Biosystems, Foster City, CA, USA) equipped with an atmospheric pressure chemical ionization (APCI) Turbo V source was used. Multiple reaction monitoring (MRM) was performed in positive mode during the analysis with a targeted scan time of 0.8 sec. Nitrogen was applied as curtain, collision, and ion source gases.

The target in series [3] is T1, human CYP17A1. Nature of the series: Progesterone 17α-hydroxylase inhibition with purified CYP17A1. It is filed as biochemical. Particulars: for IC50: conversion of PRO to 17-OH-PRO, 10 μM progesterone, mean over 3 measurements ± standard error. Here is the method:
as §1

A further series concerns H295R cells. Nature of the series: Cell viability, resazurin assay. It is filed as cell-based, human. From the text:
Cell viability was confirmed with the resazurin assay, as described by Nielsen et al.[50].
For orientation: The colour change of resazurin is a common sign of viable cells or microbes.

The mark [4] stands for this setting: H295R, progestagens, EC200 ± standard error.
[5] abbreviates: H295R, androgens, read-out: AN IC50.
The mark [6] stands for this setting: H295R, androgens, read-out: DHEA IC50.
The mark [7] stands for this setting: H295R, androgens, read-out: TS IC50.
Setting [8] is: H295R, corticosteroids, read-out: 11deoxy-COR IC50.
The mark [9] stands for this setting: H295R, corticosteroids, read-out: 11deoxy-COS IC50.
The mark [10] stands for this setting: H295R, corticosteroids, read-out: COR IC50.
The mark [11] stands for this setting: H295R, corticosteroids, read-out: CORNE IC50.
[12] abbreviates: H295R, estrogens, read-out: E1 IC50.
Setting [13] is: H295R, estrogens, read-out: E-E2 IC50.
[14] abbreviates: H295R, progestagens, mean over 6 to 15 measurements ± standard error, read-out: PREG IC50.
Setting [15] is: H295R, progestagens, read-out: 17OH-PREG IC50.
[16] abbreviates: H295R, progestagens, read-out: 17OH-PROG IC50.

The IC50 is the point on the concentration scale where inhibition reaches its midpoint. `Cc1ccc(-c2csc(-c3cccnc3)n2)c(C)c1` [Compound 1]: the IC50 was 500 ± 90 nM at human CYP17A1 [1]; 300 to 1200 nM in the series with H295R cell line (H295R cells, read-out: IC50 values for progestagens and corticosteroids (range)); 68 ± 2 nM with H295R cell line (setting [5]); 94 ± 30 nM with H295R cell line (setting [6]); 52 ± 2 nM in the series on H295R cell line (setting [7]); 480 ± 10 nM in the series on H295R cell line (setting [8]). Moreover, the IC50 in the series with H295R cell line (setting [9]) amounted to 310 ± 60 nM; in the series on H295R cell line (setting [10]), 1200 ± 100 nM; with H295R cell line (setting [11]), 700 ± 100 nM; in the series on H295R cell line (setting [12]) it was 220 ± 10 nM; in the series on H295R cell line (setting [13]), 235 ± 6 nM; with H295R cell line (setting [14]), 390 ± 70 nM. Also, the values for the 50% inhibitory concentration (IC50) in the series with H295R cell line (setting [15]), with H295R cell line (setting [16]) and on human CYP17A1 [3] were 830 ± 80 nM, 800 ± 200 nM and 230 ± 20 nM, respectively. In addition, the “Concentration at which precipitation was observed” value in series [2] is “around 10 μM”. Moreover, in the series on H295R cell line (H295R cells), the “Effect on the CYP17A1 substrates pregnenolone and progesterone” value is on record as “dose-dependent increases”. The “PREG EC200” value in the series with H295R cell line (setting [4]) worked out at 500 ± 70 nM. Also, in the series with H295R cell line (setting [4]), the “PROG EC200” value is 146 ± 7 nM. Also, in the series on H295R cell line (H295R, EC200 ± standard error), the “11deoxy-COS EC200” value is 146 ± 4 nM. Besides, in the series with H295R cell line (H295R, EC200 ± standard error), the “COS EC200” value amounted to 56 ± 1 nM. Moreover, the “Potency for 17α-hydroxylase inhibition relative to abiraterone (times less potent)” value on human CYP17A1 [3] (recombinant human CYP17A1) is recorded as 2–3 times.
As for `CCCn1nnc2cc(-c3cc(-c4ccncc4)c(C#N)c(N)n3)ccc21` [Compound 2], the IC50 came out at 110 ± 20 nM at human CYP17A1 [1]; 4.3 ± 0.1 nM in the series with H295R cell line (setting [5]); 7.4 ± 0.1 nM in the series on H295R cell line (setting [6]); 3.3 ± 0.2 nM with H295R cell line (setting [7]); 54 ± 5 nM in the series on H295R cell line (setting [8]); 23.8 ± 0.9 nM in the series with H295R cell line (setting [9]). The IC50 with H295R cell line (setting [10]) worked out at 36 ± 4 nM; with H295R cell line (setting [11]), 23 ± 1 nM; with H295R cell line (H295R, corticosteroids, read-out: COS IC50) it was 36 ± 4 nM; in the series with H295R cell line (setting [12]), 19 ± 3 nM; in the series on H295R cell line (setting [13]) it was 50 ± 10 nM; in the series with H295R cell line (setting [14]), 15 ± 3 nM. For the same compound, the IC50 in the series with H295R cell line (setting [15]) was determined as 52 ± 4 nM; in the series on H295R cell line (setting [16]) it was 20 ± 1 nM; against human CYP17A1 [3], 130 ± 10 nM. Also, in series [2], the “Concentration at which precipitation was observed” value turned out to be 60 µM. Besides, the “Effect on the CYP17A1 substrates pregnenolone and progesterone” value in the series with H295R cell line (H295R cells) is recorded as “dose-dependent increases”. The “PREG EC200” value in the series on H295R cell line (setting [4]) turned out to be 19 ± 4 nM. Also, in the series with H295R cell line (setting [4]), the “PROG EC200” value was 32 ± 4 nM.
As to `C[C@]12CC[C@H](O)CC1=CC[C@@H]1[C@@H]2CC[C@]2(C)C(c3cccnc3)=CC[C@@H]12` [abiraterone, reference compound], the IC50 on human CYP17A1 [1] was determined as 36 ± 2 nM; in the series on H295R cell line (setting [5]) it was 0.5 nM; in the series on H295R cell line (setting [6]), 1.8 ± 0.1 nM; in the series on H295R cell line (setting [7]), 0.2 nM; with H295R cell line (setting [8]) it was 5.3 ± 0.1 nM; in the series with H295R cell line (setting [10]) it was 5 ± 0.4 nM. Further, the IC50 in the series with H295R cell line (setting [11]) is 2.5 ± 0.1 nM; in the series on H295R cell line (setting [12]), 0.8 ± 0.1 nM; with H295R cell line (setting [13]) it was 408 ± 60 nM; in the series with H295R cell line (setting [14]), 5.9 ± 0.5 nM; with H295R cell line (H295R, progestagens, mean over 6 to 15 measurements ± standard error, read-out: PROG IC50), 181 ± 5 nM; in the series with H295R cell line (setting [15]), 9.7 ± 0.3 nM. Besides, the IC50 with H295R cell line (setting [16]) is 6.3 ± 0.2 nM; in the series with H295R cell line (H295R, calculated on low concentrations of abiraterone (first part of the Gaussian-like curve), read-out: 11deoxy-COS IC50), 2.6 ± 0.5 nM; in the series on H295R cell line (H295R, calculated on low concentrations of abiraterone (first part of the Gaussian-like curve), read-out: COS IC50), 2.9 ± 0.5 nM; in the series on H295R cell line (H295R, calculated using high concentrations of abiraterone (second part of the Gaussian-like curve), read-out: 11deoxy-COS IC50), 240 ± 20 nM; against human CYP17A1 [3], 92 ± 4 nM. The “PREG EC200” value in the series on H295R cell line (setting [4]) is 7.3 ± 0.3 nM. The “PROG EC200” value in the series on H295R cell line (setting [4]) turned out to be 1.0 ± 0.1 nM. Besides, the “Concentration at which cells were not viable” value in the series on H295R cells is 10 µM.
